{"source": "patent US9026372B2", "about": "“Methods for providing a system of care for a high-dose oxazaphosphorine drug regimen” (Accentia Biopharmaceuticals, Inc., priority 2007, dated 2015)", "key": {"[1]": {"test_system": "white blood cell (WBC) count", "excerpt": "On Day 6, (six days after completion of high-dose cyclophosphamide treatment), patients received G-CSF."}, "[2]": {"test_system": "aggressive relapsing-remitting multiple sclerosis", "source_text": "All 9 patients had aggressive relapsing-remitting multiple sclerosis, 8 of whom failed conventional therapy and 1 was untreated. Median age at time of entry was 29 years (range of 20 to 47 years). The mean number of gadolinium enhancing lesions on baseline MRI was 6.5 (range 3-11)."}}, "note": "Where two headings read alike, the source gives them in different places.", "data": [{"smiles": "O=P1(N(CCCl)CCCl)NCCCO1", "note": "(centres unmarked) [cyclophosphamide]", "values": [{"measurement": "minimum WBC", "setting": "[1]; patient HiCy01, never had GEL, suspected exacerbations", "result": 70}, {"measurement": "minimum WBC", "setting": "[1]; patient HiCy07, went to 0 GEL, single GEL on follow-up MRI", "result": 6}, {"measurement": "minimum WBC count", "setting": "[1]; patient HiCy11, GEL on every follow up", "result": 24}, {"measurement": "minimum WBC", "setting": "[1]; patient HiCy14, went to 0 GEL, single GEL on follow-up MRI", "result": 31}, {"measurement": "minimum WBC count", "setting": "[1]; patient HiCy19, GEL on every follow up, only 6 months of follow-up", "result": 50}, {"measurement": "WBC count (minimum)", "setting": "[1]; patients HiCy05 and HiCy13, within two weeks of treatment, no GEL up to 24 months follow-up", "result": 0}, {"measurement": "minimum WBC count", "setting": "[1]; patients HiCy09 and HiCy15 (both), 0 GEL", "result": 12}, {"measurement": "reduction in disability (EDSS)", "setting": "[2]; 9 patients, at baseline 66% had EDSS of 5.0 or more", "result": 50, "unit": "%"}, {"measurement": "reduction in gadolinium enhancements", "setting": "[2]; at 6 months following 50 mg/kg/day intravenously for four days, 9 patients, baseline mean 6.5 lesions", "result": 90, "unit": "%"}, {"measurement": "reduction in gadolinium enhancements", "setting": "[2]; by 18 months following 50 mg/kg/day intravenously for four days, 9 patients", "result": 94, "unit": "%"}, {"measurement": "adverse outcomes", "setting": "[2]; initial cohort of 9 patients with severe relapsing MS", "result": "no significant adverse outcomes"}, {"measurement": "patients having no disability (EDSS score of 0)", "setting": "[2]; of 9 patients, after treatment", "result": 3, "unit": "patients"}, {"measurement": "patients with EDSS score of 1", "setting": "[2]; of 9 patients, after treatment", "result": 1, "unit": "patient"}, {"measurement": "patients with an exacerbation during follow-up", "setting": "[2]; of 9 patients, started on conventional MS therapy at 18 months", "result": "one"}]}]}
